From ChEMBL document CHEMBL1201862, “PubChem BioAssay data set” (2004)
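Results reflect a 48-hour exposure of cells in 96-well plates to compound at five concentrations. Abbreviation: GI50, concentration required for 50% inhibition of growth.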 Activity calls are given as the source filed them. No stated cut-off is given here; in the data, active = GI50 up to about 1.1 µM and inactive = higher.

What was measured:
Experiment in all cases: NCI tumour cell line growth inhibition, 48 h
OVCAR-5 = tested on: OVCAR-5
SK-OV-3 = tested on: SK-OV-3
UACC-62 = tested on: UACC-62
HT-29 = tested on: HT-29
M14 = tested on: M14
SK-MEL-28 = tested on: SK-MEL-28
SK-MEL-5 = tested on: SK-MEL-5
CAKI-1 = tested on: CAKI-1
HOP-92 = tested on: HOP-92
A498 = tested on: A498
EKVX = tested on: EKVX
HCC 2998 = tested on: HCC 2998
OVCAR-8 = tested on: OVCAR-8
NCI/ADR-RES = tested on: NCI/ADR-RES
NCI-H23 = tested on: NCI-H23
BT-549 = tested on: BT-549
MDA-MB-231 = tested on: MDA-MB-231
OVCAR-3 = tested on: OVCAR-3
UO-31 = tested on: UO-31
COLO 205 = tested on: COLO 205
A549 = tested on: A549
HOP-62 = tested on: HOP-62
LOX IMVI = tested on: LOX IMVI
SF-268 = tested on: SF-268
HL-60 = tested on: HL-60
786-0 = tested on: 786-0
MOLT-4 = tested on: MOLT-4
UACC-257 = tested on: UACC-257
TK-10 = tested on: TK-10
MCF7 = tested on: MCF7
OVCAR-4 = tested on: OVCAR-4
SN12C = tested on: SN12C
U-251 = tested on: U-251
SW-620 = tested on: SW-620
Malme-3M = tested on: Malme-3M
PC-3 = tested on: PC-3
MDA-N = tested on: MDA-N
SF-539 = tested on: SF-539
NCI-H522 = tested on: NCI-H522
SK-MEL-2 = tested on: SK-MEL-2
SF-295 = tested on: SF-295
T47D = tested on: T47D
KM12 = tested on: KM12
ACHN = tested on: ACHN
MDA-MB-435 = tested on: MDA-MB-435
Hs-578T = tested on: Hs-578T
NCI-H226 = tested on: NCI-H226
RXF 393 = tested on: RXF 393
RPMI-8226 = tested on: RPMI-8226
HCT-15 = tested on: HCT-15
SNB-75 = tested on: SNB-75
K562 = tested on: K562
CCRF-CEM = tested on: CCRF-CEM
IGROV-1 = tested on: IGROV-1
DU-145 = tested on: DU-145
HCT-116 = tested on: HCT-116
NCI-H460 = tested on: NCI-H460
SNB-19 = tested on: SNB-19
SR = tested on: SR

For `Nc1nc(Cl)c(C=O)c(NCC2(CO)CCC2)n1`, which GI50 (OVCAR-5) is on record?
Its GI50 is > 100 µM (inactive).

And the GI50 (SK-OV-3)?
The GI50 was 27.2 µM (inactive).

What about the GI50 (UACC-62) of the same molecule?
The GI50 was 14.3 µM (inactive).

What about the GI50 (HT-29) of the same molecule?
Its GI50 is 31.4 µM (inactive).

What about the GI50 (M14) of the same molecule?
The GI50 was 26.5 µM (inactive).

And the GI50 (SK-MEL-28)?
Its GI50 is 34.8 µM (inactive).

What about the GI50 (SK-MEL-5) of the same molecule?
The GI50 was 14.5 µM (inactive).

What about the GI50 (CAKI-1) of the same molecule?
The GI50 was 13.6 µM (inactive).

And the GI50 (HOP-92)?
Its GI50 is 15.3 µM (inactive).

What about the GI50 (A498) of the same molecule?
Its GI50 is 25.1 µM (inactive).

And the GI50 (EKVX)?
The GI50 was 17.6 µM (inactive).

And the GI50 (HCC 2998)?
Its GI50 is 9.48 µM (inactive).

And the GI50 (OVCAR-8)?
The GI50 was 15 µM (inactive).

What about the GI50 (NCI/ADR-RES) of the same molecule?
The GI50 was 40 µM (inactive).

What about the GI50 (NCI-H23) of the same molecule?
The GI50 was 26.4 µM (inactive).

What about the GI50 (BT-549) of the same molecule?
Its GI50 is 28.6 µM (inactive).

What about the GI50 (MDA-MB-231) of the same molecule?
The GI50 was 22.9 µM (inactive).

What about the GI50 (OVCAR-3) of the same molecule?
Its GI50 is 17.5 µM (inactive).

And the GI50 (UO-31)?
The GI50 was 21.8 µM (inactive).

What about the GI50 (COLO 205) of the same molecule?
Its GI50 is 25.7 µM (inactive).

And the GI50 (A549)?
Its GI50 is 91.6 µM (inactive).

What about the GI50 (HOP-62) of the same molecule?
The GI50 was 25.4 µM (inactive).

What about the GI50 (LOX IMVI) of the same molecule?
The GI50 was 12.4 µM (inactive).

What about the GI50 (SF-268) of the same molecule?
The GI50 was 16.6 µM (inactive).

And the GI50 (HL-60)?
The GI50 was 4.5 µM (inactive).

What about the GI50 (786-0) of the same molecule?
The GI50 was 76 µM (inactive).

What about the GI50 (MOLT-4) of the same molecule?
The GI50 was 18.3 µM (inactive).

And the GI50 (UACC-257)?
The GI50 was 24.8 µM (inactive).

What about the GI50 (TK-10) of the same molecule?
The GI50 was > 100 µM (inactive).

What about the GI50 (MCF7) of the same molecule?
The GI50 was > 100 µM (inactive).

And the GI50 (OVCAR-4)?
Its GI50 is 14.3 µM (inactive).

And the GI50 (SN12C)?
The GI50 was 45.2 µM (inactive).

What about the GI50 (U-251) of the same molecule?
Its GI50 is 15.2 µM (inactive).

What about the GI50 (SW-620) of the same molecule?
The GI50 was 28.2 µM (inactive).

What about the GI50 (Malme-3M) of the same molecule?
The GI50 was 43.1 µM (inactive).

What about the GI50 (PC-3) of the same molecule?
The GI50 was 17.7 µM (inactive).

And the GI50 (MDA-N)?
The GI50 was 21.3 µM (inactive).

What about the GI50 (SF-539) of the same molecule?
Its GI50 is 32.7 µM (inactive).

And the GI50 (NCI-H522)?
The GI50 was 3.56 µM (inactive).

What about the GI50 (SK-MEL-2) of the same molecule?
Its GI50 is 14.5 µM (inactive).

And the GI50 (SF-295)?
Its GI50 is 22.8 µM (inactive).

What about the GI50 (T47D) of the same molecule?
Its GI50 is 33.7 µM (inactive).

And the GI50 (KM12)?
Its GI50 is 43.1 µM (inactive).

And the GI50 (ACHN)?
The GI50 was 37.8 µM (inactive).

And the GI50 (MDA-MB-435)?
Its GI50 is 28.8 µM (inactive).

What about the GI50 (Hs-578T) of the same molecule?
Its GI50 is 22.2 µM (inactive).

What about the GI50 (NCI-H226) of the same molecule?
Its GI50 is 15.4 µM (inactive).

And the GI50 (RXF 393)?
The GI50 was 17.8 µM (inactive).

What about the GI50 (RPMI-8226) of the same molecule?
The GI50 was 39.7 µM (inactive).

What about the GI50 (HCT-15) of the same molecule?
Its GI50 is 11.8 µM.

And the GI50 (SNB-75)?
The GI50 was 24 µM (inactive).

And the GI50 (K562)?
Its GI50 is 3.83 µM (inactive).

And the GI50 (CCRF-CEM)?
Its GI50 is 12.9 µM (inactive).

What about the GI50 (IGROV-1) of the same molecule?
The GI50 was 12.3 µM (inactive).

What about the GI50 (DU-145) of the same molecule?
The GI50 was 31.1 µM (inactive).

And the GI50 (HCT-116)?
The GI50 was 17.7 µM (inactive).

And the GI50 (NCI-H460)?
Its GI50 is 31 µM (inactive).

What about the GI50 (SNB-19) of the same molecule?
Its GI50 is 17.1 µM (inactive).

What about the GI50 (SR) of the same molecule?
The GI50 was 3.21 µM (inactive).

For `COP(=O)(OC)/C(=C/c1c[nH]c2ccccc12)C(=O)O`, which GI50 (OVCAR-5) is on record?
The GI50 was > 100 µM (inactive).

And the GI50 (SK-OV-3)?
Its GI50 is > 100 µM (inactive).

And the GI50 (UACC-62)?
The GI50 was > 100 µM (inactive).

And the GI50 (HT-29)?
Its GI50 is > 100 µM (inactive).

And the GI50 (M14)?
Its GI50 is > 100 µM (inactive).

And the GI50 (SK-MEL-28)?
Its GI50 is > 100 µM (inactive).

And the GI50 (SK-MEL-5)?
Its GI50 is > 100 µM (inactive).

What about the GI50 (CAKI-1) of the same molecule?
The GI50 was > 100 µM (inactive).

What about the GI50 (HOP-92) of the same molecule?
The GI50 was > 100 µM (inactive).

What about the GI50 (A498) of the same molecule?
Its GI50 is > 100 µM (inactive).

And the GI50 (EKVX)?
The GI50 was > 100 µM (inactive).

And the GI50 (HCC 2998)?
Its GI50 is > 100 µM (inactive).

What about the GI50 (OVCAR-8) of the same molecule?
Its GI50 is > 100 µM (inactive).

And the GI50 (NCI/ADR-RES)?
The GI50 was > 100 µM (inactive).

What about the GI50 (NCI-H23) of the same molecule?
Its GI50 is > 100 µM (inactive).

What about the GI50 (BT-549) of the same molecule?
The GI50 was > 100 µM (inactive).

And the GI50 (MDA-MB-231)?
The GI50 was > 100 µM (inactive).

And the GI50 (OVCAR-3)?
Its GI50 is > 100 µM (inactive).

And the GI50 (UO-31)?
Its GI50 is > 100 µM (inactive).

And the GI50 (COLO 205)?
Its GI50 is > 100 µM (inactive).

What about the GI50 (A549) of the same molecule?
The GI50 was > 100 µM (inactive).

And the GI50 (HOP-62)?
Its GI50 is > 100 µM (inactive).

And the GI50 (LOX IMVI)?
The GI50 was > 100 µM (inactive).

And the GI50 (HL-60)?
Its GI50 is > 100 µM (inactive).

What about the GI50 (786-0) of the same molecule?
The GI50 was > 100 µM (inactive).

And the GI50 (MOLT-4)?
The GI50 was > 100 µM (inactive).

What about the GI50 (TK-10) of the same molecule?
The GI50 was > 100 µM (inactive).

What about the GI50 (MCF7) of the same molecule?
The GI50 was > 100 µM (inactive).

And the GI50 (OVCAR-4)?
Its GI50 is > 100 µM (inactive).

And the GI50 (SN12C)?
The GI50 was > 100 µM (inactive).

What about the GI50 (U-251) of the same molecule?
Its GI50 is > 100 µM (inactive).

And the GI50 (SW-620)?
Its GI50 is > 100 µM (inactive).

And the GI50 (Malme-3M)?
Its GI50 is > 100 µM (inactive).

What about the GI50 (PC-3) of the same molecule?
The GI50 was > 100 µM (inactive).

And the GI50 (MDA-N)?
The GI50 was > 100 µM (inactive).

What about the GI50 (SF-539) of the same molecule?
The GI50 was > 100 µM (inactive).

And the GI50 (NCI-H522)?
The GI50 was > 100 µM (inactive).

And the GI50 (SK-MEL-2)?
The GI50 was > 100 µM (inactive).

What about the GI50 (SF-295) of the same molecule?
The GI50 was > 100 µM (inactive).

What about the GI50 (T47D) of the same molecule?
The GI50 was > 100 µM (inactive).

What about the GI50 (KM12) of the same molecule?
The GI50 was > 100 µM (inactive).

What about the GI50 (ACHN) of the same molecule?
Its GI50 is > 100 µM (inactive).

And the GI50 (MDA-MB-435)?
The GI50 was > 100 µM (inactive).

And the GI50 (Hs-578T)?
Its GI50 is > 100 µM (inactive).

What about the GI50 (NCI-H226) of the same molecule?
Its GI50 is > 100 µM (inactive).

What about the GI50 (RXF 393) of the same molecule?
Its GI50 is > 100 µM (inactive).

What about the GI50 (RPMI-8226) of the same molecule?
Its GI50 is > 100 µM (inactive).

And the GI50 (HCT-15)?
Its GI50 is greater than 100 µM.

What about the GI50 (SNB-75) of the same molecule?
The GI50 was > 100 µM (inactive).

What about the GI50 (K562) of the same molecule?
The GI50 was > 100 µM (inactive).

And the GI50 (CCRF-CEM)?
Its GI50 is > 100 µM (inactive).

And the GI50 (IGROV-1)?
Its GI50 is > 100 µM (inactive).

And the GI50 (DU-145)?
Its GI50 is > 100 µM (inactive).

What about the GI50 (HCT-116) of the same molecule?
Its GI50 is > 100 µM (inactive).

What about the GI50 (NCI-H460) of the same molecule?
The GI50 was > 100 µM (inactive).

What about the GI50 (SNB-19) of the same molecule?
The GI50 was > 100 µM (inactive).

And the GI50 (SR)?
Its GI50 is > 100 µM (inactive).
